{
  "source": "ChEMBL document CHEMBL3045486",
  "about": "“Potent, Selective Adenosine A1 Agonists as Potential Analgesics” (Med Chem Res, 2004)",
  "key": {"[1]": {"target": "T1, Adenosine receptor A3 (Homo sapiens, UniProt P0DMS8)", "T1 sequence (P0DMS8 whole entry)": "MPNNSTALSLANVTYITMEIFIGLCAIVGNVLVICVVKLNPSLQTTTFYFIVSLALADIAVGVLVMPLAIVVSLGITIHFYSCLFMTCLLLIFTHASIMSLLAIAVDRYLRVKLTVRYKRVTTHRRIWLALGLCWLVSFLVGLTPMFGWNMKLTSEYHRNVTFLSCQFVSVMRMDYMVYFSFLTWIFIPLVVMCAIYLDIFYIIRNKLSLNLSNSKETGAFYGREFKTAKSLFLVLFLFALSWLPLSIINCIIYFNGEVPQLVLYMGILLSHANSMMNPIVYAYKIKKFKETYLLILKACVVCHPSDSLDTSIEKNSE", "test": "Agonist activity at Homo sapiens (human) adenosine A3 receptor expressed in CHO cells", "assay_type": "cell-based"}, "[2]": {"target": "T2, Adenosine receptor A1 (Homo sapiens, UniProt P30542)", "T2 sequence (P30542 whole entry)": "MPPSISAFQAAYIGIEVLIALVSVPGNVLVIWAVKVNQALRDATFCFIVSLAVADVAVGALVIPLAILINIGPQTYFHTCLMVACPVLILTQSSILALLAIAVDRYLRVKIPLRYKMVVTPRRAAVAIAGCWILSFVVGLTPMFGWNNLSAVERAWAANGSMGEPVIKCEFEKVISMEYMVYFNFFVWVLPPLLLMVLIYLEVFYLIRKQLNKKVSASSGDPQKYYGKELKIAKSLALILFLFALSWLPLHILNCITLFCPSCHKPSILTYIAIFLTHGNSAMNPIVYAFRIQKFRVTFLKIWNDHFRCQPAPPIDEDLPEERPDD", "test": "Agonist activity at Homo sapiens (human) adenosine A1 receptor expressed in CHO cells", "assay_type": "cell-based"}, "[3]": {"target": "T3, Adenosine receptor A3 (Homo sapiens) (UniProt P0DMS8)", "T3 sequence (whole entry)": "T1 sequence (P0DMS8 whole entry)", "test": "Agonist activity at Homo sapiens (human) adenosine A3 receptor expressed in CHO cells relative to NECA", "assay_type": "cell-based"}, "[4]": {"target": "T4, Adenosine receptor A1 (Homo sapiens) (UniProt P30542)", "T4 sequence (whole entry)": "T2 sequence (P30542 whole entry)", "test": "Agonist activity at Homo sapiens (human) adenosine A1 receptor expressed in CHO cells relative to NECA", "assay_type": "cell-based"}, "[5]": {"target": "T5, Adenosine receptor A2b (Homo sapiens, UniProt P29275)", "T5 sequence (P29275 whole entry)": "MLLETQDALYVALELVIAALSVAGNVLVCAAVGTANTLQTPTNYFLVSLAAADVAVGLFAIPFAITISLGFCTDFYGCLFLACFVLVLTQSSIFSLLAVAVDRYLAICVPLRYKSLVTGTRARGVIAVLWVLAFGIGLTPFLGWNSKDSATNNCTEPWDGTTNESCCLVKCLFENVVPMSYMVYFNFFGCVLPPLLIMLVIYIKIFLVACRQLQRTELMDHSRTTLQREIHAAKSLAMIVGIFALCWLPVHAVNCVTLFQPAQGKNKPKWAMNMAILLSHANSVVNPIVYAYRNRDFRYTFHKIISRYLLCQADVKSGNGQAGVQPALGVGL", "test": "Agonist activity at Homo sapiens (human) adenosine A2b receptor expressed in CHO cells", "assay_type": "cell-based"}, "[6]": {"target": "T4, Adenosine receptor A1 (Homo sapiens)", "test": "Intrinsic efficacy at Homo sapiens (human) adenosine A1 receptor expressed in CHO cells assessed as increase in intracellular calcium level by FLIPR assay relative to NECA", "assay_type": "functional, cell-based"}, "[7]": {"target": "T6, Adenosine receptor A2b (Homo sapiens) (UniProt P29275)", "T6 sequence (whole entry)": "T5 sequence (P29275 whole entry)", "test": "Agonist activity at Homo sapiens (human) adenosine A2b receptor expressed in CHO cells relative to NECA", "assay_type": "cell-based"}, "[8]": {"target": "T7, Adenosine receptor A2a (Homo sapiens, UniProt P29274)", "T7 sequence (P29274 whole entry)": "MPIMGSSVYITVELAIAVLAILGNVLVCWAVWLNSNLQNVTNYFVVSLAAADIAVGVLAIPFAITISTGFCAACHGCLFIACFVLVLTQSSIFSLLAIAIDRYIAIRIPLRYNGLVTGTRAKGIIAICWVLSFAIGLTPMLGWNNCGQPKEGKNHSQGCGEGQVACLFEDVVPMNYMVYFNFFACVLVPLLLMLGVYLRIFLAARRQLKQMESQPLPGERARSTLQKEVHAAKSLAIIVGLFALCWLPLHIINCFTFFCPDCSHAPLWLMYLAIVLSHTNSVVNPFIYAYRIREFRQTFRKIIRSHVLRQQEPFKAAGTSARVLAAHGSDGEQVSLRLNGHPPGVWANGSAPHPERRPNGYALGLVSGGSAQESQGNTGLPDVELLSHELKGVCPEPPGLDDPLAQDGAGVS", "test": "Agonist activity at Homo sapiens (human) adenosine A2a receptor expressed in CHO cells", "assay_type": "functional, cell-based"}, "[9]": {"target": "T7, Adenosine receptor A2a", "test": "Agonist activity at Homo sapiens (human) adenosine A2a receptor expressed in CHO cells relative to NECA", "assay_type": "cell-based"}},
  "data": [
    {"smiles": "O[C@@H]1[C@H](O)[C@@H](CF)O[C@H]1n1cnc2c(NC3CCOCC3)ncnc21", "values": [
      {"measurement": "Ki", "setting": "[1]", "result": 2510, "unit": "nM"},
      {"measurement": "Ki", "setting": "[2]", "result": 25.1, "unit": "nM"},
      {"measurement": "Ratio", "setting": "[3]", "result": "> 251"},
      {"measurement": "Ratio", "setting": "[4]", "result": 2.4},
      {"measurement": "Ki", "setting": "[5]", "result": "> 100000", "unit": "nM"},
      {"measurement": "Efficacy", "setting": "[6]", "result": 84, "unit": "%"},
      {"measurement": "Ratio", "setting": "[7]", "result": "> 273"},
      {"measurement": "Ki", "setting": "[8]", "result": 5010, "unit": "nM"},
      {"measurement": "Ratio", "setting": "[9]", "result": 212}
    ]},
    {"smiles": "OC[C@H]1O[C@@H](n2cnc3c(N[C@H]4CCC[C@@H]4O)ncnc32)[C@H](O)[C@@H]1O", "note": "[GR-79236]", "values": [
      {"measurement": "Ki", "setting": "[1]", "result": 2510, "unit": "nM"},
      {"measurement": "Ki", "setting": "[2]", "result": 15.8, "unit": "nM"},
      {"measurement": "Ratio", "setting": "[3]", "result": "> 190"},
      {"measurement": "Ratio", "setting": "[4]", "result": 1.9},
      {"measurement": "Ki", "setting": "[5]", "result": 31600, "unit": "nM"},
      {"measurement": "Efficacy", "setting": "[6]", "result": 106, "unit": "%"},
      {"measurement": "Ratio", "setting": "[7]", "result": 195},
      {"measurement": "Ki", "setting": "[8]", "result": 25100, "unit": "nM"},
      {"measurement": "Ratio", "setting": "[9]", "result": 445}
    ]},
    {"smiles": "COC[C@H]1O[C@@H](n2cnc3c(Nc4ccc(O)c(F)c4)ncnc32)[C@H](O)[C@@H]1O", "note": "[GR-190178]", "values": [
      {"measurement": "Ki", "setting": "[1]", "result": 3160, "unit": "nM"},
      {"measurement": "Ki", "setting": "[2]", "result": 251, "unit": "nM"},
      {"measurement": "Ratio", "setting": "[3]", "result": "> 364"},
      {"measurement": "Ratio", "setting": "[4]", "result": 12},
      {"measurement": "Efficacy", "setting": "[6]", "result": 12, "unit": "%"},
      {"measurement": "Ratio", "setting": "[7]", "result": "> 348"},
      {"measurement": "Ki", "setting": "[8]", "result": "> 100000", "unit": "nM"},
      {"measurement": "Ratio", "setting": "[9]", "result": 725}
    ]}
  ]
}
